Experimental data as given in ChEMBL document CHEMBL1135087, “Synthesis and biological evaluation of novel thio-substituted chromanes as high-affinity partial agonists for the estrogen receptor” (Bioorg Med Chem Lett, 2002).

Experiments:
[1] = target: T1, Estrogen receptor (Homo sapiens, UniProt Q92731+P03372)
[2] = tested on: Ishikawa; assay: cells; settings: Homo sapiens
Description: Stimulation of alkaline phosphatase activity in Ishikawa human endometrial adenocarcinoma cells

[3] = target: T1, Estrogen receptor; assay: Displacement of [3H]17-beta-estradiol from Estrogen receptor of rabbit uterine tissue; assay type: protein assay, Oryctolagus cuniculus; settings: target entry is the homologue from another species

SMILES	IC50 [1] [nM]	EC50 [2] [nM]	IC50 [3] [nM]
COc1ccc2c(c1)OC(C)(C)[C@@H](c1ccccc1)[C@@H]2c1ccc(OCCN2CCCC2)cc1 [LEVORMELOXIFENE]	73	13	–
O=C(c1ccc(OCCN2CCCCC2)cc1)c1c(-c2ccc(O)cc2)sc2cc(O)ccc12 [RALOXIFENE]	–	0.04	–
Oc1ccc2c(c1)OC[C@H](c1ccccc1)[C@@H]2c1ccc(OCCN2CCCC2)cc1 (racemic)	19	0.9	–
C#C[C@]1(O)CC[C@H]2C3CCc4cc(O)ccc4[C@H]3[C@@H](OC)C[C@@]21C (single isomer, unassigned) [MOXESTROL]	–	0.08	2.9
Oc1ccc2c(c1)OC[C@H](c1ccccc1)[C@@H]2c1ccc(SCCN2CCCCC2)cc1 (racemic)	9.7	1.8	–
Oc1ccc2c(c1)OC[C@H](c1ccccc1)[C@@H]2c1ccc(OCCN2CCCCC2)cc1 (racemic)	3.1	0.7	–
CC/C(=C(\c1ccc(I)cc1)c1ccc(OCCN2CCCC2)cc1)c1ccccc1 [IDOXIFENE]	7.5	7	–
Cl.Oc1ccc2c(c1)OC[C@H](c1ccccc1)[C@@H]2c1ccc(SCCN2CCCC2)cc1 (racemic)	6.5	0.5	–
